{"source": "patent US8729228B2", "about": "“Method of producing a modified (poly) peptide” (University of Geneva, priority 2005, dated 2014)", "key": {"[1]": {"system": "α-smooth muscle-actin (α-SMA)", "assay": "α-SMA stress fibre assay in α-SMA-EGFP transfected REF-52 cells (confocal microscopy)", "format": "cell-based, Rat", "conditions": "for penetration into the cell, monitored by detection of the expected biological activity: extent measured by comparison with the biological activity of standards", "experimental": "FIG. 15: (a) Constructs designed to deliver the Ac-EEED peptide into cells through a semi-permanent carboxy esterification strategy. (b) Rat embryonic fibroblasts (REF-52 cells) transfected with the α-SMA-EGFP construct (Clement et al., J Cell Sci. 118, 1395-1404 (2005)) were trypsinized, plated on coverslips for 1 days in DMEM/2% FCS and treated with SMA-Peptide [Ac-E(OBzl)-E(OBzl)-E(OBzl)-D(OBzl)-K(Ac)-CONH2] (5 μg/ml) for 45 min in DMEM without FCS (37 C, incubator). Cells were the rinsed in DMEM, fixed with 1% PFA, and mounted for confocal microscopy (LSM510, Carl Zeiss) observation. α-SMA-EGFP transfected cells were either untreated (control; left), or treated for 45 minutes with SMA-Peptide [Ac-E(OBzl)-E(OBzl)-E(OBzl)-D(OBzl)-K(Ac)-CONH2] (right).\nThis example relates to delivery of the peptide using a semi-permanent carboxy esterification strategy of a synthetic peptide incorporating a C-terminal lysine residue, whose carboxy terminus is amidated and whose epsilon amino group is either acetylated or used as a handle to attach a tracer (fluorochrome, biotin, etc, FIG. 15(a)). Four constructs have been tested, varying the lipophilicity of the protecting ester moiety."}, "[2]": {"molecular_target": "α-smooth muscle-actin (α-SMA) (Homo sapiens, UniProt P62736)", "conditions": "microinjection (Chaponnier et al. 1995) and fusion to a PTD (Hinz et al. 2002); cited from earlier work"}}, "note": "Residues, ends and D or L forms follow the SMILES beside them. *: point of attachment. OBn = c1ccc(CO*)cc1", "data": [{"compound": "CC(=O)NCCCC[C@H](NC(=O)[C@H](CC(=O)OCc1ccccc1)NC(=O)[C@H](CCC(=O)OCc1ccccc1)NC(=O)[C@H](CCC(=O)OCc1ccccc1)NC(=O)[C@H](CCC(=O)OCc1ccccc1)NC(C)=O)C(N)=O", "note": "[SMA-Peptide, Ac-E(OBzl)-E(OBzl)-E(OBzl)-D(OBzl)-K(Ac)-CONH2] (Ac-E(OBn)E(OBn)E(OBn)D(OBn)K(Ac)-NH2)", "values": [{"measurement": "α-SMA positive-stress fibers", "setting": "[1]; REF-52 cells transfected with α-SMA-EGFP, 5 μg/ml for 45 min in DMEM without FCS, 37 C", "value": "provokes α-SMA positive-stress fiber disappearance"}, {"measurement": "penetration into the cell, monitored by detection of the expected biological activity", "setting": "[1]; listed as template", "value": "incomplete"}, {"measurement": "penetration into the cell, monitored by detection of the expected biological activity", "setting": "[1]; listed as template with the carboxylates esterified with benzyl groups", "value": "showed penetration into the cell"}]}, {"compound": "Ac-EEED", "values": [{"measurement": "blocking polymerisation of α-smooth muscle-actin (α-SMA)", "setting": "[2]", "value": "capable of blocking polymerisation of α-smooth muscle-actin (α-SMA)"}]}]}
